Patent US4147778A, “Antibiotic baumycin complex and components thereof” (Zaidan Hojin Biseibutsu Kagaku Kenkyu Kai, priority 1976, dated 1979)
≈ marks a conversion by molar mass, not a printed value. Entries after “also recorded” stand apart in the source; their conditions may differ.

Tests used:
[1] = Toxicity in experimental animal tests; type: in vivo
gram-positive bacteria = assay: Antimicrobial activity against gram-positive bacteria; type: cell-based
From the text: (§1) The minimum inhibitory concentration of the present antibiotics as determined by the broth dilution method are shown in Table 1.

animal tumors = assay: Inhibition of growth of animal tumors; type: in vivo; conditions: experimental animal tests
From the text: (§2) For example, BDF1 mice were inoculated intraperitoneally with 1 × 10^6 L-1210 cells/mouse and 24 hrs. after inoculation the drug was intraperitoneally injected once daily for 10 days consecutively. On day 30, the % of prolongation of the survival time to control was as follows: […]

mouse L-1210 leukemia = assay: Prolongation of survival time of mice inoculated with L-1210 leukemia; type: in vivo, BDF1 mice; conditions: for Prolongation of the survival time T/C: BDF1 mice, 1 × 10^6 L-1210 cells i.p., day 30; for Inhibitory effect on mouse L-1210 leukemia: in words
From the text: as §2

Staph. aureus Smith = assay: Minimum inhibitory concentration, broth dilution method; type: cell-based
From the text: as §1

B. subtilis ATCC 6633 = assay: as above; type: cell-based; conditions: B. subtilis ATCC 6633
From the text: as §1

[2] = system: Mycobacterium smegmatis ATCC 607; assay: as above; type: cell-based; conditions: for Minimum inhibitory concentration: Mycobacterium smegmatis ATCC 607
From the text: as §1

Candida tropicalis = assay: as above; type: cell-based
From the text: as §1

B. cereus ATCC 9634 = assay: as above; type: cell-based; conditions: for Minimum inhibitory concentration: B. cereus ATCC 9634
From the text: as §1

Sarcina lutea ATCC 9341 = assay: as above; type: cell-based; conditions: Sarcina lutea ATCC 9341
From the text: as §1

Staph. aureus FDA209P = assay: as above; type: cell-based
From the text: as §1

[3] = system: B. megarterium NRRL B-938; assay: as above; type: cell-based
From the text: as §1

Proteus morganii = assay: as above; type: cell-based
From the text: as §1

Coryne. bovis 1810 = assay: as above; type: cell-based
From the text: as §1

[4] = system: Ps. fluorescens NIHJB-254; assay: as above; type: cell-based; conditions: for Minimum inhibitory concentration: Ps. fluorescens NIHJB-254
From the text: as §1

[5] = system: Candida albicans IAM 4905; assay: as above; type: cell-based; conditions: for Minimum inhibitory concentration: Candida albicans IAM 4905
From the text: as §1

Micrococcus flavs = assay: as above; type: cell-based; conditions: for Minimum inhibitory concentration: Micrococcus flavs
From the text: as §1

[6] = Acute toxicity, LD50 upon intraperitoneal injection; type: in vivo
From the text: The LD50 values upon intraperitoneal injection of the
antibiotics of the present invention are shown in the […]

Solubility = type: physicochemical
[7] = 1 mg./kg./day i.p. once daily for 10 days
[8] = 0.06 mg./kg./day i.p. once daily for 10 days
[9] = in acidic water, DMSO, methylcellosolve, methanol, ethanol, n-propanol, n-butanol, ethyl acetate, butyl acetate, acetone, methyl ethyl ketone, methylene chloride and chloroform
[10] = in n-hexane, cyclohexane and petroleum ether

Row | Structure (SMILES) | Toxicity [1] | Prolongation of the survival time T/C (mouse L-1210 leukemia; [7]) | Inhibitory effect on mouse L-1210 leukemia (mouse L-1210 leukemia) | Minimum inhibitory concentration (Staph. aureus Smith) | Minimum inhibitory concentration (B. subtilis ATCC 6633) | Minimum inhibitory concentration [2] | Minimum inhibitory concentration (Candida tropicalis) | Minimum inhibitory concentration (B. cereus ATCC 9634) | Minimum inhibitory concentration (Sarcina lutea ATCC 9341) | Minimum inhibitory concentration (Staph. aureus FDA209P) | Minimum inhibitory concentration [3] | Minimum inhibitory concentration (Proteus morganii) | Minimum inhibitory concentration (Coryne. bovis 1810) | Minimum inhibitory concentration [4] | Minimum inhibitory concentration [5] | Minimum inhibitory concentration (Micrococcus flavs) | LD50 [6] | Prolongation of the survival time T/C (mouse L-1210 leukemia; [8]) | Solubility (Solubility; [9]) | Solubility (Solubility; [10]) | further results
1 | COc1cccc2c1C(=O)c1c(O)c3c(c(O)c1C2=O)CC(O)(C(C)=O)CC3OC1CC(N)C(OC(CC(C)O)OC(C)C(=O)O)C(C)O1 (stereo not drawn) [BM-B2] | low toxicity | 99% | marked inhibitory effects | 50 µg/mL (≈ 72.7 µM) | > 100 µg/mL | > 100 µg/mL | > 100 µg/mL | > 100 µg/mL | 25 µg/mL (≈ 36.4 µM) | 100 µg/mL (≈ 145 µM) | > 100 µg/mL | > 100 µg/mL | 50 µg/mL (≈ 72.7 µM) | > 100 µg/mL | > 100 µg/mL | 50 µg/mL (≈ 72.7 µM) | 75 to 100 mg/kg | – | – | – | Antimicrobial activity (gram-positive bacteria; listed as Baumycin B2): inhibit the growth of gram-positive bacteria; also recorded: possess antimicrobial activity, especially against gram-positive bacteria; Inhibition of growth of animal tumors / antitumor activity (animal tumors; listed as Baumycin B2): inhibit the growth of various animal tumors; also recorded: marked antitumor activity; also recorded: marked inhibitory action against animal malignant tumors, especially ascitic and solid tumors; Prolongation of the survival time T/C (mouse L-1210 leukemia; 2 mg./kg./day i.p. once daily for 10 days): 99%; Prolongation of the survival time T/C (mouse L-1210 leukemia; 4 mg./kg./day i.p. once daily for 10 days): 111%; Prolongation of the survival time T/C (mouse L-1210 leukemia; 6 mg./kg./day i.p. once daily for 10 days): 135%; Prolongation of the survival time T/C (mouse L-1210 leukemia; 8 mg./kg./day i.p. once daily for 10 days): 155%; Solubility (Solubility; in acidic water, methyl cellosolve, methanol, ethanol, n-propanol and n-butanol): Soluble; Solubility (Solubility; in ethyl acetate, acetone, methylene chloride, chloroform, carbon tetrachloride, benzene, toluene, ethyl ether and n-hexane): Insoluble; Solubility (Solubility; in water, listed as Baumycin B2): soluble
2 | COc1cccc2c1C(=O)c1c(O)c3c(c(O)c1C2=O)CC(O)(C(C)=O)CC3OC1CC(N)C(OC(CC(C)O)OC(C)CO)C(C)O1 (stereo not drawn) [BM-A1] | low toxicity | – | marked inhibitory effects | – | 0.78 µg/mL (≈ 1.16 µM) | – | – | – | 0.78 µg/mL (≈ 1.16 µM) | – | 1.56 µg/mL (≈ 2.32 µM) | – | 1.56 µg/mL (≈ 2.32 µM) | – | – | – | 1.5 to 2.5 mg/kg | > 300% | Soluble | Insoluble | Antimicrobial activity (gram-positive bacteria; listed as Baumycin A1): inhibit the growth of gram-positive bacteria; also recorded: possess antimicrobial activity, especially against gram-positive bacteria; Inhibition of growth of animal tumors / antitumor activity (animal tumors; listed as Baumycin A1): inhibit the growth of various animal tumors; also recorded: marked antitumor activity; also recorded: marked inhibitory action against animal malignant tumors, especially ascitic and solid tumors; Prolongation of the survival time T/C (mouse L-1210 leukemia; 0.004 mg./kg./day i.p. once daily for 10 days): 131%; Prolongation of the survival time T/C (mouse L-1210 leukemia; 0.008 mg./kg./day i.p. once daily for 10 days): 131%; Prolongation of the survival time T/C (mouse L-1210 leukemia; 0.015 mg./kg./day i.p. once daily for 10 days): 155%; Prolongation of the survival time T/C (mouse L-1210 leukemia; 0.03 mg./kg./day i.p. once daily for 10 days): 187%; MIC (Staph. aureus Smith; Staphylococcus aureus): 0.78 µg/mL (≈ 1.16 µM); MIC ([2]; Mycolicibacterium smegmatis, ATCC607, Mycobacterium smegmatis ATCC 607): 6.25 µg/mL (≈ 9.28 µM); MIC (Candida tropicalis): 100 µg/mL (≈ 148 µM); MIC (B. cereus ATCC 9634; Bacillus cereus, ATCC9634, B. cereus ATCC 9634): 1.56 µg/mL (≈ 2.32 µM); MIC (Staph. aureus FDA209P; Staphylococcus aureus, FDA209P): 1.56 µg/mL (≈ 2.32 µM); MIC (Proteus morganii; Morganella morganii): > 100 µg/mL; MIC ([4]; Pseudomonas fluorescens, NIHJB254, Ps. fluorescens NIHJB-254): > 100 µg/mL; MIC ([5]; IAM4905, Candida albicans IAM 4905): 100 µg/mL (≈ 148 µM); MIC (Micrococcus flavs; Micrococcus, read-out: Minimum inhibitory concentration, Micrococcus flavs): 0.78 µg/mL (≈ 1.16 µM); Solubility (Solubility; in water): Insoluble
3 | COc1cccc2c1C(=O)c1c(O)c3c(c(O)c1C2=O)CC(O)(C(C)=O)CC3OC1CC(N)C(OC(CC(C)O)OC(C)CO)C(C)O1 (stereo not drawn) [BM-A2] | low toxicity | 167% | marked inhibitory effects | 1.56 µg/mL (≈ 2.32 µM) | 3.12 µg/mL (≈ 4.63 µM) | 12.5 µg/mL (≈ 18.6 µM) | 100 µg/mL (≈ 148 µM) | 3.12 µg/mL (≈ 4.63 µM) | 3.12 µg/mL (≈ 4.63 µM) | 3.12 µg/mL (≈ 4.63 µM) | 6.25 µg/mL (≈ 9.28 µM) | > 100 µg/mL | 6.25 µg/mL (≈ 9.28 µM) | 100 µg/mL (≈ 148 µM) | 100 µg/mL (≈ 148 µM) | 1.56 µg/mL (≈ 2.32 µM) | 15 to 20 mg/kg | 141% | Soluble | Insoluble | Antimicrobial activity (gram-positive bacteria; listed as Baumycin A2): inhibit the growth of gram-positive bacteria; also recorded: possess antimicrobial activity, especially against gram-positive bacteria; Inhibition of growth of animal tumors / antitumor activity (animal tumors; listed as Baumycin A2): inhibit the growth of various animal tumors; also recorded: marked antitumor activity; also recorded: marked inhibitory action against animal malignant tumors, especially ascitic and solid tumors; Prolongation of the survival time T/C (mouse L-1210 leukemia; 0.125 mg./kg./day i.p. once daily for 10 days): 151%; Prolongation of the survival time T/C (mouse L-1210 leukemia; 0.25 mg./kg./day i.p. once daily for 10 days): 163%; Prolongation of the survival time T/C (mouse L-1210 leukemia; 0.5 mg./kg./day i.p. once daily for 10 days): 173%; Solubility (Solubility; in water): Insoluble
